PubChem BioAssay AID1963446 (Molecular Pharmacology Branch, DTP, NCI, 2024)

Test system: 993429-296-R-J1-PDC complex spheroid growth, percent test/control
Assay: Anticancer human tumor 993429-296-R-J1-PDC patient-derived uterine sarcoma cell line growth inhibition [Asc]
Conditions: for IC50: curve of first compound; for viability, T/C: stronger effect = lower value; active = viability on the fitted dose curve at most 10% of control; inactive = the rest
Summary of the method: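 Stromal components (HUVEC and hMSC) are co-assembled with the cancer cells into multicellular spheroids. Drugs are then added singly or paired, at concentrations falling by half-log increments from a clinically achievable maximum, capped at 10 microM without known Cmax.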
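Note: spheroids exposed to compounds for seven days.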

CCN1CCN(Cc2ccc(Nc3ncc(F)c(-c4cc(F)c5nc(C)n(C(C)C)c5c4)n3)nc2)CC1 + Cc1c(S(C)(=O)=O)c(-c2cc(F)cc(N3CCN(c4ccc(NS(=O)(=O)c5ccc(NC(CCN6CCC(C(=O)OCCCP(=O)(O)O)CC6)CSc6ccccc6)c(S(=O)(=O)C(F)(F)F)c5)cc4)CC3)c2)c(-c2ccc(Cl)cc2)n1C(C)C
< 0.00316 µM: IC50 (second compound 3.16 µM)
0.859 µM: IC50 (second compound 0.316 µM)
> 1 µM: IC50 (second compound 0.1 µM)
0.344 µM: IC50 (second compound 1 µM)
0.463 µM: IC50 (second compound 10 µM)
inactive: viability, T/C (second compound 0.1 µM, first compound 0.00316 µM) 70.2% | viability, T/C (second compound 0.1 µM, first compound 0.01 µM) 81.9% | viability, T/C (second compound 0.1 µM, first compound 0.0316 µM) 64.3% | viability, T/C (second compound 0.1 µM, first compound 0.1 µM) 60.6% | viability, T/C (second compound 0.1 µM, first compound 0.316 µM) 85% | viability, T/C (second compound 0.1 µM, first compound 1 µM) 50.7% | viability, T/C (second compound 0.316 µM, first compound 0.00316 µM) 54.2% | viability, T/C (second compound 0.316 µM, first compound 0.01 µM) 55.5% | viability, T/C (second compound 0.316 µM, first compound 0.0316 µM) 63.5% | viability, T/C (second compound 0.316 µM, first compound 0.1 µM) 64.7% | viability, T/C (second compound 0.316 µM, first compound 0.316 µM) 64.3% | viability, T/C (second compound 0.316 µM, first compound 1 µM) 32.5% | viability, T/C (second compound 1 µM, first compound 0.00316 µM) 48.1% | viability, T/C (second compound 1 µM, first compound 0.01 µM) 52.4% | viability, T/C (second compound 1 µM, first compound 0.0316 µM) 49.5% | viability, T/C (second compound 1 µM, first compound 0.1 µM) 58.7% | viability, T/C (second compound 1 µM, first compound 0.316 µM) 55% | viability, T/C (second compound 1 µM, first compound 1 µM) 16.5% | viability, T/C (second compound 3.16 µM, first compound 0.00316 µM) 37.3% | viability, T/C (second compound 3.16 µM, first compound 0.01 µM) 45.3% | viability, T/C (second compound 3.16 µM, first compound 0.0316 µM) 46.6% | viability, T/C (second compound 3.16 µM, first compound 0.1 µM) 41.8% | viability, T/C (second compound 3.16 µM, first compound 0.316 µM) 38.7% | viability, T/C (second compound 3.16 µM, first compound 1 µM) 16.2% | viability, T/C (second compound 10 µM, first compound 0.00316 µM) 70.5% | viability, T/C (second compound 10 µM, first compound 0.01 µM) 67.4% | viability, T/C (second compound 10 µM, first compound 0.0316 µM) 71.2% | viability, T/C (second compound 10 µM, first compound 0.1 µM) 76.9% | viability, T/C (second compound 10 µM, first compound 0.316 µM) 67.4% | viability, T/C (second compound 10 µM, first compound 1 µM) 14%

Cc1nc(N2CCC3(CC2)COC(C)C3N)c(CO)nc1Sc1ccnc(N)c1Cl (stereo not given) + CNC(C)C(=O)NC1CN(S(=O)(=O)c2cccc(S(=O)(=O)N3CCC4CCC(C(=O)NC(c5ccccc5)c5ccccc5)N4C(=O)C(NC(=O)C(C)NC)C3)c2)CCC2CCC(C(=O)NC(c3ccccc3)c3ccccc3)N2C1=O
0.107 µM: IC50 (second compound 1 µM)
0.0847 µM: IC50 (second compound 0.0316 µM)
inactive: viability, T/C (second compound 0.01 µM, first compound 0.00949 µM) 68.6% | viability, T/C (second compound 0.01 µM, first compound 0.03 µM) 61.1% | viability, T/C (second compound 0.01 µM, first compound 0.0949 µM) 49.5% | viability, T/C (second compound 0.01 µM, first compound 0.3 µM) 42.5% | viability, T/C (second compound 0.01 µM, first compound 0.949 µM) 37% | viability, T/C (second compound 0.01 µM, first compound 3 µM) 32.2% | viability, T/C (second compound 0.0316 µM, first compound 0.00949 µM) 67.5% | viability, T/C (second compound 0.0316 µM, first compound 0.03 µM) 57.5% | viability, T/C (second compound 0.0316 µM, first compound 0.0949 µM) 50.9% | viability, T/C (second compound 0.0316 µM, first compound 0.3 µM) 39.4% | viability, T/C (second compound 0.0316 µM, first compound 0.949 µM) 36.7% | viability, T/C (second compound 0.0316 µM, first compound 3 µM) 30.9% | viability, T/C (second compound 0.1 µM, first compound 0.00949 µM) 60.1% | viability, T/C (second compound 0.1 µM, first compound 0.03 µM) 54.9% | viability, T/C (second compound 0.1 µM, first compound 0.0949 µM) 45.2% | viability, T/C (second compound 0.1 µM, first compound 0.3 µM) 39.8% | viability, T/C (second compound 0.1 µM, first compound 0.949 µM) 29% | viability, T/C (second compound 0.1 µM, first compound 3 µM) 28.3% | viability, T/C (second compound 0.316 µM, first compound 0.00949 µM) 43.6% | viability, T/C (second compound 0.316 µM, first compound 0.03 µM) 48.9% | viability, T/C (second compound 0.316 µM, first compound 0.0949 µM) 51.9% | viability, T/C (second compound 0.316 µM, first compound 0.3 µM) 41.3% | viability, T/C (second compound 0.316 µM, first compound 0.949 µM) 32.4% | viability, T/C (second compound 0.316 µM, first compound 3 µM) 29.2% | viability, T/C (second compound 1 µM, first compound 0.00949 µM) 53.1% | viability, T/C (second compound 1 µM, first compound 0.03 µM) 48.1% | viability, T/C (second compound 1 µM, first compound 0.0949 µM) 52.2% | viability, T/C (second compound 1 µM, first compound 0.3 µM) 40% | viability, T/C (second compound 1 µM, first compound 0.949 µM) 20.5% | viability, T/C (second compound 1 µM, first compound 3 µM) 26.7%
0.103 µM: IC50 (second compound 0.01 µM)
< 0.00949 µM: IC50 (second compound 0.316 µM)
0.0568 µM: IC50 (second compound 0.1 µM)
